From paper PMC12386606, “Evaluation of the In Vitro Blood–Brain Barrier Transport of Ferula persica L. Bioactive Compounds” (International Journal of Molecular Sciences, 2025)
Read-outs that look alike come from different tables or passages of the source.

Assays:
[1] = oil/water partition coefficient, ref PubChem, cited from earlier work
[2] = Parallel artificial membrane permeability assay for the blood–brain barrier (PAMPA-BBB); conditions: for AerExt Cross BBB Potential: compound within AerExt; for AerExt Cross BBB Potential / RootExt Cross BBB Potential: PAMPA-BBB; for RootExt log Pe: compound within RootExt donor solution; for RootExt log Pe / AerExt log Pe: 37 °C, 4 h, PBS pH 7.4, n.q. = not quantified in the acceptor plate; for Papp at 4 h: PAMPA, pH 7.4; for AerExt log Pe: compound within AerExt donor solution; for RootExt Cross BBB Potential: compound within RootExt
Experimental: The permeability of bioactive compounds from AerExt and RootExt across the BBB was assessed using the PAMPA-BBB assay, following the methodology described by [11]. Firstly, the BBB solution was prepared by dissolving 8 mg of PBL and 4 mg of cholesterol in 600 μL of n-dodecane. The initial donor solution was prepared by mixing 1 mL of AerExt or RootExt (at 10 mg mL^−1 in EtOH) with 1 mL of buffer (PBS, pH = 7.4, 10 mM). The filter membrane of the donor plate was coated with 5 μL of BBB solution. The acceptor plate was filled with 350 μL of buffer, and the donor plate was carefully placed on top of the acceptor plate to form a “sandwich-like” assembly. Subsequently, 350 μL of the donor solution was added to the donor plate, which was then covered and incubated at 37 °C for 4 h in the dark. After the incubation time, 300 μL of the solution was collected from each plate, transferred into separate vials, and evaporated using a SpeedVac system at 40 °C under 13 mbar pressure. The dried acceptor and donor solutions were dissolved in 50 μL of pure EtOH before being subjected to HPLC-Q-TOF-MS/MS and GC-Q-TOF-MS analysis. Permeability (Pe) across the PAMPA-BBB of the bioactive compound was calculated according to Equation (1) [54], with modifications in concentration rates.Pe = −ln[1 − CA(t)/Cequilibrium]/(A × (1/VD + 1/VA) × t)(1)
Cequilibrium was calculated according to Equation (2):Cequilibrium = [CD(t) × VD + CA(t) × VA]/(VD + VA)(2)
The HPLC-MS and GC-MS chromatograms were processed using the Agilent Mass Hunter Qualitative software (version B.10.0) to verify the retention time and exact mass of the compounds previously reported by us [25] and to extract their peak area to calculate the BBB permeability.

HBMEC cells = assay: Blood–brain barrier transport study in HBMEC Transwell monolayer; conditions: for AerExt Te (%) ± SD 2 h / AerExt Te (%) ± SD 4 h / AerExt Te (%) ± SD 24 h: AerExt 40 µg mL^−1 apical; for AerExt Te (%) ± SD 2 h / AerExt Te (%) ± SD 4 h / AerExt Te (%) ± SD 24 h / RootExt Te (%) ± SD 2 h / RootExt Te (%) ± SD 4 h / RootExt Te (%) ± SD 24 h: n.q. = not quantified in the basolateral compartment; for crossing of the HBMEC-BBB: AerExt 40 µg mL^−1 / RootExt 20 µg mL^−1, 2, 4, 24 h; for RootExt Te (%) ± SD 2 h / RootExt Te (%) ± SD 4 h / RootExt Te (%) ± SD 24 h: RootExt 20 µg mL^−1 apical
Experimental: After the toxicity evaluation, the HBMEC cell line was also used as a simplified in vitro model of the BBB endothelium. Cells were seeded at a density of 1.6 × 10^5 cells/cm^2 in 12-well Transwell® plates (Corning Costar Corp., Corning, USA) with a pore diameter of 0.4 μm, pre-coated with type I rat tail collagen (100 μg mL^−1) [55]. The culture medium was renewed every 2 days until a monolayer cell structure was formed (see Supplementary Figure S2), and transport experiments were initiated after 10 days. In transport experiments, the medium in the apical (upper) compartment of the Transwell system was removed, and 0.5 mL of AerExt or RootExt at a concentration of 40 μg mL^−1 and 20 μg mL^−1, respectively, was added to these compartments (applied in duplicate). Also, a medium containing 0.4% (v/v) ethanol was used as control group. The basolateral (lower) compartments were filled with 1.5 mL of fresh culture medium. The cells were incubated under these conditions for 2, 4, and 24 h.
At the end of the incubation periods, media samples were collected from both chambers and lyophilized using a freeze-drying system from Martin Christ (Osterode am Harz, Germany). The samples were stored at −80 °C until analysis. The collected samples were subjected to chemical analyses to evaluate the ability of bioactive compounds contained in the extracts to pass through the cell monolayer.
The transport efficiency (Te) of bioactive substances was calculated based on Equation (3), described by [56]:Te (%) = CLower/CUpper × 100(3)
This calculation was performed to understand whether the compound crosses the cell layer and how efficiently it is transported.
For this purpose, 0.2 mL of cold water (H2O) was added to the samples, and the samples were vortexed for 10 s. Then, 0.8 mL of cold methanol was added and vortexed again for 10 s. Then, the mixture was centrifuged at 14,000 rpm for 5 min, and the supernatant was carefully transferred to a 1.5 mL Eppendorf tube and dried in a SpeedVac device at 40 °C and 13 bar pressure. Finally, the dried samples were resuspended in 25 μL of pure ethanol for their subsequent analysis.
For HPLC-Q-TOF MS/MS analysis, aliquots of 2 μL were injected into an HPLC model 1290 coupled to a Q-TOF series 6540 (Agilent Technologies, Waldbronn, Germany). For GC-Q-TOF MS analysis, aliquots of 1 μL were injected with a split ratio of 1:10 into a GC model 7890B coupled to a Q-TOF series 7200 (Agilent Technologies, Waldbronn, Germany). The HPLC-MS and GC-MS chromatograms were processed using the Agilent Mass Hunter Qualitative software (version B.10.0) to verify the retention time and exact mass of the compounds previously reported by us [25] and to extract their peak area to calculate the BBB permeability.

Molecule | log p ([1]; Table 1) | RootExt log Pe [2] | AerExt log Pe [2] | further results
O=c1cc(-c2ccc(O)c(O)c2)oc2cc(O[C@@H]3O[C@H](CO)[C@@H](O)[C@H](O)[C@H]3O)cc(O)c12 [Luteolin 7-glucoside] | 0.5 | n.q. |  | AerExt Cross BBB Potential [2]: + (log Pe < −6.5)
COc1ccc(-c2cc(=O)c3c(O)cc(O)cc3o2)cc1O [Diosmetin] | 1.7 |  |  | Papp at 4 h [2]: 148 ×10⁻⁶ cm/s
O=c1cc(-c2ccc(O)cc2)oc2cc(O)cc(O)c12 [Apigenin] | 1.7 | n.q. |  | AerExt Te (%) ± SD 2 h (HBMEC cells): 4.2 ± 0.9%; AerExt Te (%) ± SD 4 h (HBMEC cells): 5.1 ± 0.3%; AerExt Te (%) ± SD 24 h (HBMEC cells): 309.7 ± 93.0%; Papp at 4 h [2]: 97.7 ×10⁻⁶ cm/s
O=C(O)C=Cc1cc(O)ccc1O [2,5-dihydroxycinnamic acid] | 1.2 | −5.22 | −5.68 | crossing of the HBMEC-BBB (HBMEC cells): could not cross the HBMEC-BBB; RootExt Te (%) ± SD 2 h (HBMEC cells): n.q.; RootExt Te (%) ± SD 4 h (HBMEC cells): n.q.; RootExt Te (%) ± SD 24 h (HBMEC cells): n.q.
COc1ccc(C=O)c(O)c1 [4-methoxysalicylaldehyde] | 1.5 |  | n.q. | crossing of the HBMEC-BBB (HBMEC cells): could not cross the HBMEC-BBB; AerExt Te (%) ± SD 2 h (HBMEC cells): n.q.; AerExt Te (%) ± SD 4 h (HBMEC cells): n.q.; AerExt Te (%) ± SD 24 h (HBMEC cells): n.q.; RootExt Te (%) ± SD 2 h (HBMEC cells): n.q.
O=Cc1cccc(C(=O)O)c1O [3-formylsalicylic acid] | 1.0 | −5.50 |  | 
O=C(O)c1cccc(O)c1O [2,3-dihydroxybenzoic acid] | 1.2 |  | n.q. | log p ([1]; Table 2): 1.5; AerExt Te (%) ± SD 2 h (HBMEC cells): 17.5 ± 3.5%; AerExt Te (%) ± SD 4 h (HBMEC cells): 9.6 ± 0.6%; AerExt Te (%) ± SD 24 h (HBMEC cells): 14.0 ± 3.9%; RootExt Te (%) ± SD 2 h (HBMEC cells): 21.4 ± 5.3%; RootExt Te (%) ± SD 4 h (HBMEC cells): 23.9 ± 4.4%; RootExt Te (%) ± SD 24 h (HBMEC cells): 214.1 ± 45.4%
CC1=CCC[C@]2(C)CCC(=C(C)C)C[C@@H]12 [Selina-3,7(11)-diene] | 4.4 | n.q. | n.q. | 
α-epi-7-epi-5-eudesmol | 3.4 | n.q. | n.q. | 
C/C=C\c1cc(OC)c(OC)cc1OC [β-asarone] | 3.0 | n.q. |  | AerExt Te (%) ± SD 2 h (HBMEC cells): 7.5 ± 2.0%; AerExt Te (%) ± SD 4 h (HBMEC cells): 15.0 ± 7.3%; AerExt Te (%) ± SD 24 h (HBMEC cells): 15.5 ± 1.0%
O=c1c(OC2OC(CO)C(O)C(O)C2O)c(-c2ccc(O)c(O)c2)oc2cc(O)cc(O)c12 (stereo not drawn) [Isoquercetrin] | −0.2 | n.q. | n.q. | AerExt Cross BBB Potential [2]: –; RootExt Cross BBB Potential [2]: –
CC(=O)c1ccc(O)c(O)c1 [3,4-dihydroxyacetophenone] | 1.5 |  |  | Papp at 4 h [2]: 17.4 ×10⁻⁶ cm/s
COc1cc(/C=C/CO)cc(OC)c1O [trans-sinapyl alcohol] | 1.3 |  |  | RootExt Cross BBB Potential [2]: + (log Pe < −6.5)
Farnesyl acetate | 5.3 |  | −5.25 | 
O=c1cc(-c2ccc(O)cc2)oc2cc(O[C@@H]3O[C@H](CO)[C@@H](O)[C@H](O)[C@H]3O)cc(O)c12 [Apigenin 7-glucoside] | −0.1 | n.q. |  | crossing of the HBMEC-BBB (HBMEC cells): could not cross the HBMEC-BBB; AerExt Te (%) ± SD 2 h (HBMEC cells): n.q.; AerExt Te (%) ± SD 4 h (HBMEC cells): n.q.; AerExt Cross BBB Potential [2]: + (log Pe < −6.5)
C=CC(C)(O)CC/C=C(\C)CCC=C(C)C (stereo not drawn) [(E)-nerolidol] | 4.6 | n.q. | n.q. | 
COc1cc([C@H]2OC[C@H]3[C@@H]2CO[C@@H]3c2cc(OC)c(O[C@@H]3O[C@H](CO)[C@@H](O)[C@H](O)[C@H]3O)c(OC)c2)cc(OC)c1O [Syringaresinol glucoside] | −1.4 | n.q. | n.q. | 
CC(C)=CCCC(C)(O)[C@H]1CC[C@]2(C)[C@@H]1[C@H](O)C[C@@H]1[C@@]3(C)CC[C@H](O)C(C)(C)[C@@H]3CC[C@]12C (stereo in doubt) [Protopanaxadiol] | 7.2 | n.q. | n.q. | 
CC1=C2CCC(C)C2CC(C(C)(C)O)CC1 (stereo not drawn) [Bulnesol] | 3.8 | n.q. | n.q. | 
C=CC1(C)CCC(=C(C)C)CC1C(=C)C (stereo not drawn) [γ-elemene] | 5.4 | n.q. | n.q. | 
C=CCc1cc(OC)c2c(c1)OCO2 [Myristicin] | 2.9 | n.q. |  | 

Molecule | log p ([1]; Table 1) | RootExt log Pe [2] | AerExt log Pe [2] | further results
O=C(O)[C@]1(O)C[C@@H](O)[C@@H](O)[C@H](O)C1 [Quinic acid] | −2.4 |  |  | AerExt Cross BBB Potential [2]: + (log Pe < −6.5)
C[C@@H]1CCC=C2CC[C@@H](C(C)(C)O)C[C@]21C [Valerianol] | 3.5 | −5.59 | −5.35 | RootExt Cross BBB Potential [2]: + (log Pe < −6.5)
C[C@@H]1CCCC2=CC[C@@H]3[C@@H](C3(C)C)[C@]21C [(–)-aristolene] | 4.7 | n.q. | n.q. | 
CC(=O)O[C@@H]1[C@@H](OC(C)=O)[C@@H](O)[C@H](Oc2c(-c3ccc(O)cc3)oc3cc(O)cc(O)c3c2=O)O[C@H]1C [Kaempferol 3-O-(3″,4″-di-O-acetyl-a-L-rhamnopyranoside)] | −0.9 |  | n.q. | 
O=C(/C=C/c1ccc(O)c(O)c1)OC1C(O)CC2(O)CC1OC2=O (stereo not drawn) [4-caffeoylquinic acid lactone] | 0.4 |  |  | AerExt Cross BBB Potential [2]: + (log Pe < −6.5)
Oc1ccc(O)c(O)c1 [1,2,4-benzenetriol] | 1.5 |  | n.q. | crossing of the HBMEC-BBB (HBMEC cells): could not cross the HBMEC-BBB; RootExt Te (%) ± SD 2 h (HBMEC cells): n.q.; RootExt Te (%) ± SD 4 h (HBMEC cells): n.q.; RootExt Te (%) ± SD 24 h (HBMEC cells): n.q.
CC1=C[C@H]2[C@@H](CC1=O)[C@H](C)C[C@H](O)[C@H]2C(C)C [8-hydroxyageraphorone] | 2.9 |  |  | AerExt Te (%) ± SD 2 h (HBMEC cells): n.q.; AerExt Te (%) ± SD 4 h (HBMEC cells): n.q.; AerExt Te (%) ± SD 24 h (HBMEC cells): n.q.; RootExt Te (%) ± SD 2 h (HBMEC cells): n.q.; RootExt Te (%) ± SD 4 h (HBMEC cells): n.q.; RootExt Te (%) ± SD 24 h (HBMEC cells): 124.7 ± 16.9%
CC1=C2C[C@H](C(C)(C)O)CC[C@]2(C)CCC1 [epi-γ-eudesmol] | 2.9 |  |  | AerExt Cross BBB Potential [2]: + (log Pe < −6.5); RootExt Cross BBB Potential [2]: + (log Pe < −6.5)
CC(=O)OC[C@H]1O[C@@H](Oc2cc(O)c3c(=O)c(-c4ccc(O)cc4)coc3c2)[C@H](O)[C@@H](O)[C@@H]1O [6″-O-acetylgenistin] | 0.9 |  | n.q. | 
CC(=O)OC(C)(C)[C@@H]1CC[C@H](C)C2=C(C1)[C@@H](C)CC2 [Guaiol acetate] | 3.6 | −5.05 | n.q. | 
CC1=C2C[C@H](C(C)(C)O)CC[C@@]2(C)CCC1 [γ-eudesmol] | 3.7 |  |  | AerExt Cross BBB Potential [2]: + (log Pe < −6.5); RootExt Cross BBB Potential [2]: + (log Pe < −6.5)
CC1=CCC[C@@H](C)[C@]12CC[C@@H](C(C)(C)O)C2 [Agarospirol] | 3.7 | n.q. | n.q. | 
C=C1CC[C@H]2O[C@]2(C)CC[C@@H]2[C@@H]1CC2(C)C [(–)-caryophyllene oxide] | 3.6 |  |  | AerExt Te (%) ± SD 2 h (HBMEC cells): 4.3 ± 0.1%; AerExt Te (%) ± SD 4 h (HBMEC cells): 8.6 ± 0.6%; AerExt Te (%) ± SD 24 h (HBMEC cells): 8.8 ± 0.7%; RootExt Te (%) ± SD 2 h (HBMEC cells): n.q.; RootExt Te (%) ± SD 4 h (HBMEC cells): n.q.; RootExt Te (%) ± SD 24 h (HBMEC cells): n.q.
CC1CCCC2(C)CCC(C(C)(C)O)C=C12 (stereo not drawn) [Rosifoliol] | 3.9 | n.q. | n.q. | 
C/C1=C\CC/C(C)=C/CC(C)(C)/C=C/C1 [α-humulene] | 4.5 | n.q. | n.q. | 
COc1cc2ccc(=O)oc2c(O)c1OC [Fraxidin] | 1.5 | −4.81 | −4.82 | 
CC(C)=CCC[C@](C)(O)[C@@H]1CC=C(C)CC1 [α-bisabolol] | 1.3 |  |  | AerExt Cross BBB Potential [2]: + (log Pe < −6.5); RootExt Cross BBB Potential [2]: + (log Pe < −6.5)
COc1cc(-c2cc(=O)c3c(O)cc(O)cc3o2)ccc1O [Chrysoeriol] | 1.7 |  | n.q. | 
C=C(C)C(O)CCC(C)C1CCC2(C)C3CCC4C(C)(C)C(O)CCC45CC35CCC12C (stereo not drawn) [9,19-cyclolanost-25-ene-3,24-diol] | 8.6 | −5.79 | −5.60 | AerExt Cross BBB Potential [2]: + (log Pe < −6.5); RootExt Cross BBB Potential [2]: + (log Pe < −6.5)
C[C@H]1CC[C@@H](C(C)(C)O)CC2=C1CC[C@@H]2C [Guaiol] | 3.1 | n.q. | n.q. | 
O=c1ccc2cc(O)c(O)cc2o1 [6,7-dihydroxycoumarin] | 1.2 | n.q. |  | RootExt Cross BBB Potential [2]: –
